Assay results: article PMC5665883, “Antithrombotic properties of JJ1, a potent and novel thrombin inhibitor” (Scientific Reports, 2017)
Marks after values point to notes of the source that are not given here.

Assays:
[1] = FeCl3-induced arterial thrombosis model; assay type: in vivo, C57BL/6 mice; conditions: mice, 150 μg/mouse
Protocol: The FeCl3-induced thrombosis mouse model was established as previously described. Male C57BL/6 mice were fasted overnight and were administered JJ1 in DMSO by intravenous injection. Then, mice were anesthetized using 3% isoflurane (Forane®, Choongwae Pharma. Corp., Seoul, Korea) and injected intravenously with 0.1 mL 0.1% rhodamine 6 G (Sigma). A testicular artery (200 μm in diameter) was carefully exposed and a cotton thread (200 μm in diameter) saturated with 0.25 mol/L FeCl3 was applied to the adventitial surface. After 5 min, the cotton thread was removed, and the wound was flushed with saline solution. Thrombus formation was monitored at 35 °C by 3-dimensional imaging as previously described. The size and time of thrombus formation were monitored, and the findings were scored as follows: no thrombus, 0; small thrombus (50 μm × 75 μm), 1; medium-sized thrombus (100 μm × 150 μm), 2; large thrombus (200 μm × 300 μm), 3. The time from FeCl3-mediated endothelial injury to occlusion of the testicular artery by a large thrombus was measured.

Plasmin = target: T1, Plasmin (Homo sapiens, UniProt P00747); assay: Chromogenic substrate assay, Ki (Dixon); assay type: biochemical; conditions: for Ki: Plasmin
T1 construct: thrombin versus trypsin, factor Xa, elastase, plasmin, protein Ca, streptokinase, tPA, and urokinase

Urokinase = Urokinase (Homo sapiens, UniProt P00749); assay: Chromogenic substrate assay, Ki (Dixon); assay type: biochemical; conditions: for Ki: Urokinase
Trypsin = assay: Chromogenic substrate assay, Ki (Dixon); assay type: biochemical, human; conditions: for Ki: Trypsin, mean ± SD (n = 5)
Protocol: (§1) Chromogenic substrate assays were performed using a Labsystems IEMS (Cergy Pontoise, France) microtiter plate reader. K i values were calculated according to the method of Dixon[65]. In each assay, the compound was tested at a minimum of seven concentrations, in duplicate, to obtain an inhibition curve. The following general procedures were adopted for each assay. In a 96-well microtiter plate, 25 μL of inhibitor solution or buffer was added to 50 μL of substrate. The enzyme solution (25 μL) was added just before the plate was placed in the microtiter plate reader for 1 h at 37 °C. The hydrolysis of the substrate yields p-nitroaniline, which was continuously monitored spectrophotometrically at 405 nm. The maximal initial reaction rates were calculated and expressed as millioptical density per minute.

tPA = tPA (Homo sapiens, UniProt P00750); assay: Chromogenic substrate assay, Ki (Dixon); assay type: biochemical; conditions: for Ki: tPA
human plasma [2] = assay: In vitro PT clotting time; assay type: biochemical; conditions: in vitro, 5.0 μM
Protocol: (§2) The aPTT and PT were determined using a Thrombotimer (Behnk Elektronik, Norderstedt, Germany) in accordance with the manufacturer’s instructions and as previously described. Briefly, citrated normal human plasma (90 μL) was mixed with 10 μL JJ1 and incubated for 1 min at 37 °C. Subsequently, the aPTT assay reagent (100 μL) was added, the plasma sample was incubated for an additional 1 min at 37 °C, 20 mM CaCl2 (100 μL) was added, and the clotting times were recorded. For the PT assays, citrated normal human plasma (90 μL) was mixed with 10 μL JJ1 stock solution and was incubated for 1 min at 37 °C. The PT assay reagent (200 μL), which had been pre-incubated for 10 min at 37 °C, was subsequently added and the clotting time was recorded. The PT results were expressed in seconds and as International Normalized Ratios (INR): INR = (PT sample/PT control)^ISI, where ISI = international sensitivity index. The aPTT results were also expressed in seconds. All experimental protocols (KNUH 2012-01-010) were approved by the Institutional Review Board of Kyungpook National University Hospitals (Daegu, Republic of Korea).

Streptokinase = Streptokinase (Homo sapiens, UniProt P00747); assay: Chromogenic substrate assay, Ki (Dixon); assay type: biochemical; conditions: for Ki: Streptokinase
Protein Ca = target: T2, Protein Ca (Homo sapiens, UniProt P04070); assay: Chromogenic substrate assay, Ki (Dixon); assay type: biochemical; conditions: for Ki: Protein Ca
T2 construct: thrombin versus trypsin, factor Xa, elastase, plasmin, protein Ca, streptokinase, tPA, and urokinase

[3] = In vivo tail bleeding time; set-up: species or system C57BL/6 mice; conditions: mice, i.v. injection
Protocol: Tail bleeding times were measured by using the method of Dejana et al.[63],[64]. Briefly, C57BL/6 mice were fasted overnight prior to the experiments. One hour after the i.v. administration of JJ1, the tails of the mice were transected at 2 mm from their tips. The bleeding time was defined as the time elapsed until the bleeding stopped. Bleeding times exceeding 15 min were recorded as lasting for 15 min.

human plasma [4] = assay: In vitro aPTT clotting time; assay type: biochemical; conditions: in vitro, 5.0 μM
Protocol: as §2

Factor Xa = target: T3, Factor Xa (Homo sapiens, UniProt P00742); assay: Chromogenic substrate assay, Ki (Dixon); assay type: biochemical; conditions: for Ki: Factor Xa
T3 construct: thrombin versus trypsin, factor Xa, elastase, plasmin, protein Ca, streptokinase, tPA, and urokinase; purchased Haematologic Technologies (Essex Junction, VT)

[5] = system: neuropeptide Y receptor type 5; set-up: method as in PMID 21948594; conditions: not reported in publications; cited from earlier work
[6] = set-up: method as in PMID 21948594; conditions: not reported in publications; cited from earlier work
human α-thrombin = target: T4, human α-thrombin (Homo sapiens, UniProt P00734); assay: Chromogenic substrate assay, Ki (Dixon); assay type: biochemical
T4 construct: purchased Haematologic Technologies (Essex Junction, VT)

human plasma [7] = assay: In vitro PT clotting time; assay type: biochemical; conditions: at the maximum antithrombotic dose
Elastase = target: T5, Elastase (Homo sapiens, UniProt P08246); assay: Chromogenic substrate assay, Ki (Dixon); assay type: biochemical; conditions: K i Elastase/K i α-thrombin
T5 sequence (P08246 30-247): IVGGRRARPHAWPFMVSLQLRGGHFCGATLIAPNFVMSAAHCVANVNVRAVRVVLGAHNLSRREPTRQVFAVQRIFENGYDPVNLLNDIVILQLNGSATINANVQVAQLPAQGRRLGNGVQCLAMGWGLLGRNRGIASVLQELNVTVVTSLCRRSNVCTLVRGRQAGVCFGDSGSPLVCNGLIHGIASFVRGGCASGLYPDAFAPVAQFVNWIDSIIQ
Protocol: as §1

human plasma [8] = assay: In vitro aPTT clotting time; assay type: biochemical; conditions: at the maximum antithrombotic dose
thrombin [9] = target: T6, thrombin (Homo sapiens, UniProt P00734); assay: Thrombin activity assay (amidolytic activity, S-2238); assay type: biochemical; conditions: α-Thrombin, chromogenic substrate; read-out: IC50, inhibition of amidolytic activity of thrombin (converted)
T6 construct: thrombin solution (150 μL, 10 U/mL) was added; purchased Haematologic Technologies (Essex Junction, VT)
Protocol: Following a 2-min incubation at 37 °C, thrombin solution (150 μL, 10 U/mL) was added, followed by incubation at 37 °C for 1 min. A solution of the thrombin substrate, S-2238, (150 μL, 1.5 mM) solution was subsequently added and the absorbance at 405 nm was monitored for 120 s using a spectrophotometer (TECAN, Männedorf, Switzerland).

thrombin [10] = target: T6, thrombin; assay: Enzyme-based assay of purchased virtual screening molecules, single dose; assay type: biochemical; conditions: single concentration of 50 μM
Excerpt: Prior to the high-throughput virtual screening, we selected the best crystal structure for docking with DOCK 3.6[17] using the selected inhibitors and their physicochemically matched but topologically different decoys. […] Because the earlier enrichment of true positives is more important for high throughput SBVS, we used the value of LogAUC as a metric, selecting 2CF9-H[18] as the best structure. […] Besides, the enrichment at 1% (EF1) was 37.1. The values of LogAUC and EF1 were approximately two-fold higher than the averages (26.1 for LogAUC and 17.1 for EF1) (Figs 1 and S1). Some structures had higher AUC values than that of 2CF9-H, but the value of LogAUC was the highest for 2CF9-H (Fig. S1). The optimization necessitated the calculations of more than 2 million protein and ligand pairs. The high speed of DOCK 3.6 and the in-house Linux cluster system consisting of 128 cores efficiently managed the calculations in three days. Of the candidate molecules having the lowest scores in the high-throughput SBVS, we chose the molecules with desirable geometries and physicochemical properties by a simple manual and visual inspection. […] It is known that the scoring function of virtual screening itself is insufficient to capture such an abnormality. Table S1 and Fig. S2 list the top 40 molecules, which were selected through high-throughput SBVS; we purchased these molecules to measure enzymatic inhibitory activity.

T3 sequence (P00742 235-488 limits assumed): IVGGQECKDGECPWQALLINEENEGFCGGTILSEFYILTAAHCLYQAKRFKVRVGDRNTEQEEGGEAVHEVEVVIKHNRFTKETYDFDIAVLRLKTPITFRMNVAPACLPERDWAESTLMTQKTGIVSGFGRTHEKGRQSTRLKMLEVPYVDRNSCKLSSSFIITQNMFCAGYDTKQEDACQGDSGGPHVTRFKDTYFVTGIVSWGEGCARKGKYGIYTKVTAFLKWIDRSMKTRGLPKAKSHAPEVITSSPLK
T3 sequence (P00742 41-179 limits assumed): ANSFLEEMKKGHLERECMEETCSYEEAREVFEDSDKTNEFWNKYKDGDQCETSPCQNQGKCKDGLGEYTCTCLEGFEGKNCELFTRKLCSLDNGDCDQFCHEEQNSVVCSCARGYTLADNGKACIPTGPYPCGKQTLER
T2 sequence (P04070 212-450 limits assumed): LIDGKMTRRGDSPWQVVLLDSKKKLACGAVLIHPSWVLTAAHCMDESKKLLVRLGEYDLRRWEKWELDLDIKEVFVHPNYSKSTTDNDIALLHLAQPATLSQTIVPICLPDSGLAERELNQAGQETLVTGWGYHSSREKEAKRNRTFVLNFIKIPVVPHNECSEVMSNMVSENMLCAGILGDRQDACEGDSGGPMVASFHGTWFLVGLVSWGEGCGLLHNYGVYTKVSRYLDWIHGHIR
T2 sequence (P04070 43-197 limits assumed): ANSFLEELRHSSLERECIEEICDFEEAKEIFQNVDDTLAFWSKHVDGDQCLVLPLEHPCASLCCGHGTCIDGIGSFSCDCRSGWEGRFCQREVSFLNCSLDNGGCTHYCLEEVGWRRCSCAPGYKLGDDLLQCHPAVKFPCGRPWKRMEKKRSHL
T1 sequence (P00747 581-810 limits assumed): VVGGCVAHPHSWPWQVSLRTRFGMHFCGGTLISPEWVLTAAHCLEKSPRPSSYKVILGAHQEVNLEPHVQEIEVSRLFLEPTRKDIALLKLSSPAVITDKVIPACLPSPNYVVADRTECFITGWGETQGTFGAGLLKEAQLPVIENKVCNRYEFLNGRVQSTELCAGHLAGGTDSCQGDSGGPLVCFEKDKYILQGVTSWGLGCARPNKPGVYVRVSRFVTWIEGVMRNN
T1 sequence (P00747 97-580 limits assumed): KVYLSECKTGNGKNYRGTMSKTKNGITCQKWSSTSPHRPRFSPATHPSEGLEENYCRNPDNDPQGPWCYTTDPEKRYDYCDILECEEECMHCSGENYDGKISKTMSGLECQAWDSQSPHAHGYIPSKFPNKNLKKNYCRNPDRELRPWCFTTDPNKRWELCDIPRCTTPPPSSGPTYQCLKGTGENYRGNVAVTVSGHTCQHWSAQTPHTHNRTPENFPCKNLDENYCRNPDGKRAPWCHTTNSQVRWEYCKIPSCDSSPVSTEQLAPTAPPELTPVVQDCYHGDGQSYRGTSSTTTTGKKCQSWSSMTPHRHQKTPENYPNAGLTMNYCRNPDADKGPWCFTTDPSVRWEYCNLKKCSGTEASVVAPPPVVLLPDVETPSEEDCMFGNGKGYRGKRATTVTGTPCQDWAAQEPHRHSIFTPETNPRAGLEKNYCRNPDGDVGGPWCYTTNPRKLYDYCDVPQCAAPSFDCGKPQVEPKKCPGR
Sequence of Streptokinase (P00747 581-810 limits assumed): as the sequence (P00747 581-810 limits assumed) above
Sequence of tPA (P00750 36-562): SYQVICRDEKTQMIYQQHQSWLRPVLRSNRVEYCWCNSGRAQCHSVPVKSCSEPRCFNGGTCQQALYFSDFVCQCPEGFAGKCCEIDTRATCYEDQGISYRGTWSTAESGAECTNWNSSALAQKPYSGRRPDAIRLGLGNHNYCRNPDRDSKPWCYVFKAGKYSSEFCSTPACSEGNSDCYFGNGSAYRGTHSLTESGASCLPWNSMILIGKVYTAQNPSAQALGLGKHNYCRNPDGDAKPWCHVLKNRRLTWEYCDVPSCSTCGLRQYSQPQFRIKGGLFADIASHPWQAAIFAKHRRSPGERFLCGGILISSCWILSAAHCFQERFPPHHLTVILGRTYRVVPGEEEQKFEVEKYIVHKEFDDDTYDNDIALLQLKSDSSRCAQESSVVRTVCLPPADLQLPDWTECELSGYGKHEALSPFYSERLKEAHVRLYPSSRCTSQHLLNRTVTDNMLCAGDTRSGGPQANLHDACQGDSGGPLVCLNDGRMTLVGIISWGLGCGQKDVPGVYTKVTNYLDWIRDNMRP

In the case of `CC1CNc2c(cccc2S(=O)(=O)N[C@@H](CCCNC(=N)N)C(=O)N2CC[C@@H](C)C[C@@H]2C(=O)O)C1` (stereo partly drawn) [Argatroban], the Thrombus size score ([1]; 60 min after FeCl3-treatment, score 0-3) is reported as 1.15 ± 0.12, the “Time to large thrombus formation” value ([1]; FeCl3-induced thrombosis) is reported as 61.2 ± 5.1 min and the Ki (Plasmin) is reported as greater than 250 µM. The Ki (Urokinase) was greater than 250 µM, the Ki (Trypsin) was 4.2 ± 0.5 µM and the Ki (tPA) was greater than 250 µM. For the same compound, the PT (human plasma [2]) was 27.4 ± 0.7 s, the “PT (INR)” value (human plasma [2]) was 7.40* INR and the Ki (Streptokinase) was greater than 250 µM. The Ki (Protein Ca) was greater than 250 µM, the Tail bleeding time ([3]; 5.08 μg/mouse) was 62.2 ± 0.8 s and the aPTT (human plasma [4]) was 61.4 ± 0.8 s. The Ki (Factor Xa) was greater than 250 µM.
In the case of `c1ccc(Nc2nc(NC3CCCCC3)nc3ccccc23)cc1` [CHEMBL17914], the “Activity linked in ChEMBL” value [5] is listed as “linked with the inhibition of neuropeptide Y receptor type 5”.
In the case of `c1ccc2c(NC3CCCC3)nc(Nc3ccc4c(c3)OCO4)nc2c1` [CHEMBL578118], the “Activity linked in ChEMBL” value [6] is given as “antimalarial effects”.
For `Oc1ccccc1Nc1nc(NC2CCCC2)c2ccccc2n1` [CHEMBL581623], the “Activity linked in ChEMBL” value [6] is listed as “antimalarial effects”.
With `CN[C@H](Cc1ccccc1)C(=O)N1CCC[C@H]1C(=O)N[C@H](C=O)CCCN=C(N)N` [Efegatran] the Selectivity ratio (human α-thrombin; K i enzyme/K i α-thrombin) was 1, the Ki (human α-thrombin; mean ± SD (n = 5)) was 0.017 ± 0.0003 µM and the “Prolongation of PT” value (human plasma [7]) was 1.61 fold. It also gave a Selectivity ratio (Plasmin) of 28, a Ki (Plasmin) of 0.48 ± 0.04 µM and a Selectivity ratio (Urokinase) of 147. It also gave a Ki (Urokinase) of 2.5 ± 0.3 µM, a Selectivity ratio (Trypsin; K i Trypsin/K i α-thrombin) of 0.65 and a Ki (Trypsin) of 0.011 ± 0.0041 µM. For the same compound, the Selectivity ratio (tPA) was 88, the Ki (tPA) was 1.5 ± 0.3 µM and the PT (human plasma [2]) was 19.2 ± 0.4 s. For the same compound, the “PT (INR)” value (human plasma [2]) was 3.15* INR, the Selectivity ratio (Streptokinase) was 82 and the Ki (Streptokinase) was 1.4 ± 0.11 µM. For the same compound, the Selectivity ratio (Elastase) was >14,000, the Selectivity ratio (Protein Ca) was 70 and the Ki (Protein Ca) was 1.2 ± 0.15 µM. It also gave a Tail bleeding time ([3]; 4.17 μg/mouse) of 47.4 ± 1.1 s, an aPTT (human plasma [4]) of 44.2 ± 0.6 s and a Selectivity ratio (Factor Xa) of 5411. For the same compound, the Ki (Factor Xa) was 92 ± 9 µM, the “Prolongation of aPTT” value (human plasma [8]) was 1.86 fold and the IC50 (thrombin [9]) was 0.025 µM.
For `CCN(c1cccc(C)c1)S(=O)(=O)c1cc([N+](=O)[O-])ccc1C` [ZINC04991109], the “Degree of inhibition in the enzyme-based assay” value (thrombin [10]) was “inhibitory effects”.
For `COc1ccc(C(=O)NCc2ccco2)cc1S(=O)(=O)N1CCCCC1` [ZINC09063750], the “Degree of inhibition in the enzyme-based assay” value (thrombin [10]) was “inhibitory effects”.
